Target: Cyclin-dependent kinase 11B (Homo sapiens) (UniProt P21127)
Experiment: Inhibition of GST-tagged human recombinant CDK11 (1 to 795 residues) expressed in baculovirus expression system

Cyclin-dependent kinase 11B (Homo sapiens), sequence (P21127 whole entry, looked up, the tested form may be a part): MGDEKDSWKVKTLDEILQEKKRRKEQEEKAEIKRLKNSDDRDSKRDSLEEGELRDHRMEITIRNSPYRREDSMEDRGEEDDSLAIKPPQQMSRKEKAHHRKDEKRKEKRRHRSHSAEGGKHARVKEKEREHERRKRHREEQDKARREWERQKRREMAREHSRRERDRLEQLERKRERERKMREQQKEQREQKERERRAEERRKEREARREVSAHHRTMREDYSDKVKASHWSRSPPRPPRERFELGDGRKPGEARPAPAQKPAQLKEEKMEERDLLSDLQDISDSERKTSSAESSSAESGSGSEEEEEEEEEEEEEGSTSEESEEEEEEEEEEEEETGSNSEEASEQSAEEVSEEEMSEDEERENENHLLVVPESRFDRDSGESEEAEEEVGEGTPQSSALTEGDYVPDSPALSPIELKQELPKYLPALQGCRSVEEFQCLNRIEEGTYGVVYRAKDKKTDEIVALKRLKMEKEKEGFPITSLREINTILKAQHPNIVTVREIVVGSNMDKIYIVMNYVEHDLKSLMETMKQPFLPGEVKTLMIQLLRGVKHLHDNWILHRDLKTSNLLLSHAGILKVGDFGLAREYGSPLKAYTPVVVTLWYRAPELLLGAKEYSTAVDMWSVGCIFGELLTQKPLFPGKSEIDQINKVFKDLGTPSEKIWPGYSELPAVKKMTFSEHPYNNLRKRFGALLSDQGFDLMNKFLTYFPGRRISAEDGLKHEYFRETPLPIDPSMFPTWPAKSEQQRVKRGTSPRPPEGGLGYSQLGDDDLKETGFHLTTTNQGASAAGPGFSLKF

IC50: > 1000 nM
Compound: O=C(c1ccc2c(c1)OCCO2)C1CCN(c2ncnc3sccc23)CC1
